From patent publication US7989629B2, “3-(4-{ [4-(4-{ [3-(3, 3-dimethyl-1-piperidinyl) propyl] oxy} phenyl)-1-piperidinyl] carbonyl}-1-naphthalenyl) propanoic or propenoic acid as H1 and H3 receptor antagonists for the treatment of inflammatory and/or allergic disorders” (Glaxo Group Limited, priority 2005, dated 2011)

Assays:
histamine H3 receptor = histamine H3 receptor (Homo sapiens, UniProt Q9Y5N1); assay: Histamine H3 functional antagonist assay (GTPγS); type: biochemical; settings: functional antagonism, histamine at EC80; read-out: average pKi (pKb) at H3 (converted)
Chain of histamine H3 receptor (Q9Y5N1 whole entry, species assumed): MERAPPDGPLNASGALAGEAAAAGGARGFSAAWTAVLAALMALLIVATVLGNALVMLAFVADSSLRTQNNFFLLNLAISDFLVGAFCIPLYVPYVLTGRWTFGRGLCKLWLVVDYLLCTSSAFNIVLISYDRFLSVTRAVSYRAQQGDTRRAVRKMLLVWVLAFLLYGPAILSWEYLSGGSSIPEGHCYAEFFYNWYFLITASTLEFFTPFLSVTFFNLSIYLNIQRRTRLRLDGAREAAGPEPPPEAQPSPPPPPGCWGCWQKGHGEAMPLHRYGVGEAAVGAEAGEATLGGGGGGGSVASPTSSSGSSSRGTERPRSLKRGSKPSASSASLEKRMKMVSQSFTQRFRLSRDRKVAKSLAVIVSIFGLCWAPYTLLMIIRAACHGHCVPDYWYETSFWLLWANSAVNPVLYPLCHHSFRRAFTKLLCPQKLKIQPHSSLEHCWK
From the text: 2. H3 Receptor Cell Line Generation, Membrane Preparation and Functional GTPγS Assay Protocols
Generation of Histamine H3 Cell Line
The histamine H3 cDNA is isolated from its holding vector, pcDNA3.1 TOPO (InVitrogen), by restriction digestion of plasmid DNA with the enzymes BamH1 and Not-1 and ligated into the inducible expression vector pGene (InVitrogen) digested with the same enzymes. The GeneSwitch™ system (a system wherein transgene expression is switched off in the absence of an inducer and switched on in the presence of an inducer) is performed as described in U.S. Pat. Nos. 5,364,791; 5,874,534; and 5,935,934. […]
10-14 days post selection, 10 nM Mifepristone (InVitrogen) is added to the culture medium to induce the expression of the receptor. […] Receptor bound antibody is detected by incubation of the cells for 60 min on ice with a goat anti rabbit antibody, conjugated with Alexa 488 fluorescence marker (Molecular Probes). Following two further washes with Sorting Medium, cells are filtered through a 50 μm Filcon™ (BD Biosciences) and are then analysed on a FACS Vantage SE Flow Cytometer fitted with an Automatic Cell Deposition Unit, Control cells are non-induced cells treated in a similar manner. […]

Dog pharmacokinetics = type: in vivo; settings: combined data for Example 1 and 3; for half-life / bioavailability: male, Beagle, whole blood; for bioavailability: po, 2 mg/kg
Description: Compounds are dosed to male Beagle dogs by single intravenous or oral administration at a nominal dose level of 1 mg/kg and 2 mg/kg respectively. The study is carried out according to a crossover design such that the same dog is used for both dosing events and the dosing events occurred 1 week apart. Compounds are formulated in 5% DMSO/45% Peg200/50% water. An intravenous profile is obtained by taking serial blood samples at 0.083, 0.25, 0.5, 0.75, 1, 2, 4, 6 and 12 hr post dose (for some studies 24 hour samples may be taken). An oral profile is obtained by taking serial blood samples at 0.25, 0.5, 0.75, 1, 2, 4, 6, 12 and 24 hr post dose. Blood samples are taken directly into heparinised tubes. Blood samples are prepared by protein precipitation and subjected to quantitative analysis by LC-MS/MS using compound-specific mass transitions. Drug concentration-time profiles are generated and non-compartmental PK analysis used to generate estimates of half-life, clearance, volume of distribution and oral bioavailability.

Rat pharmacokinetics = type: in vivo
Description: Compounds are dosed to male CD Sprague Dawley rats by single intravenous or oral administration at a nominal dose level of 1 mg/kg and 3 mg/kg respectively. Compounds are formulated in 5% DMSO/45% PEG200/50% water. An intravenous profile is obtained by taking serial or terminal blood samples at 0.083, 0.25, 0.5, 1, 2, 4, and 7 hours post dose (for some studies 12 and 24 hour samples may be taken). An oral profile is obtained by taking serial or terminal blood samples at 0.25, 0.5, 1, 2, 4, 7 and 12 hours post dose (for some studies 24 and 30 hour samples may be taken). Blood samples are taken directly into heparinised tubes. Blood samples are prepared by protein precipitation and subjected to quantitative analysis by LC-MS/MS using compound-specific mass transitions. Drug concentration-time profiles are generated and non-compartmental PK analysis used to generate estimates of half-life, clearance, volume of distribution and oral bioavailability.

human H1 receptor [1] = target: T1, human H1 receptor (Homo sapiens, UniProt P35367); assay: Histamine H1 functional antagonist assay (FLIPR): determination of functional pKi values; type: cell-based; settings: functional antagonism, CHO cells, histamine at EC80; read-out: average pKi (pKb) at H1 (converted)
T1 sequence (P35367 whole entry): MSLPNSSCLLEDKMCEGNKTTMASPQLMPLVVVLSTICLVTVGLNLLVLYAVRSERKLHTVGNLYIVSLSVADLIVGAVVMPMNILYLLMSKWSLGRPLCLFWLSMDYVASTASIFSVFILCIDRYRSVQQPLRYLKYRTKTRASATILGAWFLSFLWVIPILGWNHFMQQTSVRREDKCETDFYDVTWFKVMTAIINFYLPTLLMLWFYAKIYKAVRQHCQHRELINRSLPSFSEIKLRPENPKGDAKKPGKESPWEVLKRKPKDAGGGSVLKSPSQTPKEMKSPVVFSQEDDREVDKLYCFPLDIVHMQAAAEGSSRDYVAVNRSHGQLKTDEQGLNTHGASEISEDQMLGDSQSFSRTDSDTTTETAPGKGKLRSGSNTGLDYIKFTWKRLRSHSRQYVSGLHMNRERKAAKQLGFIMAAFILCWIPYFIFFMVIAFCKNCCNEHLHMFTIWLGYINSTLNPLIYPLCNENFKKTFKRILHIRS
From the text: H1 Receptor Cell Line Generation and FLIPR Assay Protocol
1. Generation of Histamine H1 Cell Line
(§1) The human H1 receptor may be cloned using known procedures described in the literature [Biochem. Biophys. Res. Commun., 201(2):894 (1994)]. Chinese hamster ovary (CHO) cells stably expressing the human H1 receptor may be generated according to known procedures described in the literature [Br. J. Pharmacol., 117(6):1071 (1996)].
Histamine H1 Functional Antagonist Assay: Determination of Functional pKi Values […]
10 μl of test compound, diluted to the required concentration in Tyrodes buffer+probenecid (or 10 μl Tyrodes buffer+probenecid as a control) is added to each well and the plate incubated for 30 min at 37° C., 5% CO2. The plates are then placed into a FLIPR™ (Molecular Devices, UK) to monitor cell fluorescence (λex=488 nm, λEM=540 nm) in the manner described in Sullivan et al., (In: Lambert D G (ed.), Calcium Signaling Protocols, New Jersey: Humana Press, 1999, 125-136) before and after the addition of 10 μl histamine at a concentration that results in the final assay concentration of histamine being EC80.
Functional antagonism is indicated by a suppression of histamine induced increase in fluorescence, as measured by the FLIPR™ system (Molecular Devices). By means of concentration effect curves, functional affinities are determined using standard pharmacological mathematical analysis.

histamine-induced wheals = assay: In vivo anti-inflammatory wheal and flare model; set-up: species or system guinea pig
Description: In Vivo Anti-Inflammatory Wheal and Flare Model
Male Dunkin-Hartley guinea pigs 500 g-1 kg are dosed with test compound or vehicle using a 1 ml syringe into the oral cavity (0.5 ml/kg p.o.), or via a marginal ear vein (0.33 ml/kg i.v.). Compounds are formulated in 5% DMSO/45% PEG200/50% water.
Either 2 hr after oral or 15 min after intravenous compound administration, guinea pigs are anaesthetised with isoflurane (5%, […] O2), and receive Evans blue solution (2% in saline), 0.33 ml/kg i.v. via a marginal ear vein.
Immediately after Evans blue administration, and whilst still under isoflurane, animals are placed in a prone position, and an area of the back shaved. […]
Following histamine challenge, the animals are allowed to recover from anaesthesia and, 30 minutes later are euthanased with an i.p. overdose of pentobarbitone. The dorsal skin is carefully removed and wheal areas (stained blue) measured from the inner skin surface by taking two perpendicular diameters using engineer's calipers, and calculating the average radius. This value is used to calculate the area of each wheal, and the mean value of all histamine-induced wheals is subsequently calculated for each animal. […]
Dose-response curves are constructed for each test compound and ID50 values may be determined for each route of administration (oral and intravenous).

human H1 receptor [2] = target: T1, human H1 receptor; assay: Histamine H1 functional antagonist assay (FLIPR): determination of antagonist pA2; type: cell-based
Description: as §1
Histamine H1 Functional Antagonist Assay: Determination of Antagonist pA2
The histamine H1 receptor expressing CHO cells is seeded into non-coated black-walled clear bottom 96-well tissue culture plates as described above. […]
The plates are then placed into a FLIPR™ (Molecular Devices, UK) to monitor cell fluorescence (λex=488 nm, λEM=540 nm) in the manner described in Sullivan et al., (In: Lambert D G (ed.), Calcium Signaling Protocols, New Jersey: Humana Press, 1999, 125-136) before and after the addition of 50 μl histamine over a concentration range of 1 mM-0.1 nM. […] The antagonist pA2 is calculated using the following standard equation: pA2=log(DR−1)−log [B] where DR=dose ratio, defined as EC50antagonist-treated/EC50control and [B]=concentration of antagonist.

| SMILES | Ki (histamine H3 receptor) | plasma clearance (Dog pharmacokinetics) | half-life (Dog pharmacokinetics) | bioavailability (Dog pharmacokinetics) | plasma clearance (Rat pharmacokinetics) | half-life (Rat pharmacokinetics; male, CD Sprague Dawley, whole blood, 1 mg/kg, IV route) | bioavailability (Rat pharmacokinetics; male, CD Sprague Dawley, whole blood, po, 3 mg/kg) | Ki (human H1 receptor [1]) | ID50 in the wheal and flare model (histamine-induced wheals; i.v.) | ID50 in the wheal and flare model (histamine-induced wheals; oral) | Kb (human H1 receptor [2]) |
| --- | --- | --- | --- | --- | --- | --- | --- | --- | --- | --- | --- |
| CC1(C)CCCN(CCCOc2ccc(C3CCN(C(=O)c4ccc(CCC(=O)O)c5ccccc45)CC3)cc2)C1 [Example 1, 3-(4-{[4-(4-{[3-(3,3-dimethyl-1-piperidinyl)propyl]oxy}phenyl)-1-piperidinyl]carbonyl}-1-naphthalenyl)propanoic acid, formic acid (1:1)] | ~39.8 nM | low | ~3 h | ~60% | low | 4 to 5 h | ~59% | ~15.8 nM | – | – | – |
| CC1(C)CCCN(CCCOc2ccc(C3CCN(C(=O)c4ccc(CCC(=O)O)c5ccccc45)CC3)cc2)C1.Cl [Example 3, 3-(4-{[4-(4-{[3-(3,3-dimethyl-1-piperidinyl)propyl]oxy}phenyl)-1-piperidinyl]carbonyl}-1-naphthalenyl)propanoic acid, hydrochloride salt] | ~50.1 nM | low | ~3 h | ~60% | – | – | – | ~12.6 nM | about 0.6 mg/Kg | about 2.8 mg/Kg | ~7.94 nM |
